Source: patent publication US12404262B2 (priority 2021, dated 2025)

Settings: 1.0% DMSO, 24-hour incubation at ambient temperature, maximum theoretical 100 μM; for pH 2 solubility: 0.1N HCl, first value of the cell; for pH 7 solubility: 1×PBS buffer (pH 7.4), second value of the cell

Row | SMILES | pH 2 solubility | pH 7 solubility
1 | COC(=O)CN(C)C(=O)N(c1nn(CC(F)(F)F)c2c(-c3ccc(C#CC(C)(C)S(C)(=O)=O)nc3[C@H](Cc3cc(F)cc(F)c3)NC(=O)Cn3nc(C(F)(F)F)c4c3C(F)(F)[C@@H]3C[C@H]43)ccc(Cl)c12)S(C)(=O)=O [Compound 43, methyl N-((4-chloro-7-(2-((S)-1-(2-((3bS,4aR)-5,5-difluoro-3-(trifluoromethyl)-3b,4,4a,5-tetrahydro-1H-cyclopropa[3,4]cyclopenta[1,2-c]pyrazol-1-yl)acetamido)-2-(3,5-difluorophenyl)ethyl)-6-(3-methyl-3-(methylsulfonyl)but-1-yn-1-yl)pyridin-3-yl)-1-(2,2,2-trifluoroethyl)-1H-indazol-3-yl)(methylsulfonyl)carbamoyl)-N-methylglycinate] | 1/1 μM | 1/1 μM
2 | CN(CC(C)(C)O)C(=O)N(c1nn(CC(F)(F)F)c2c(-c3ccc(C#CC(C)(C)S(C)(=O)=O)nc3[C@H](Cc3cc(F)cc(F)c3)NC(=O)Cn3nc(C(F)(F)F)c4c3C(F)(F)[C@@H]3C[C@H]43)ccc(Cl)c12)S(C)(=O)=O [Compound 47, N—((S)-1-(3-(4-chloro-3-(N-((2-hydroxy-2-methylpropyl)(methyl)carbamoyl)methylsulfonamido)-1-(2,2,2-trifluoroethyl)-1H-indazol-7-yl)-6-(3-methyl-3-(methylsulfonyl)but-1-yn-1-yl)pyridin-2-yl)-2-(3,5-difluorophenyl)ethyl)-2-((3bS,4aR)-5,5-difluoro-3-(trifluoromethyl)-3b,4,4a,5-tetrahydro-1H-cyclopropa[3,4]cyclopenta[1,2-c]pyrazol-1-yl)acetamide] | 1/1 μM | 1/1 μM
3 | C[C@@H](O)CN(C)C(=O)N(c1nn(CC(F)(F)F)c2c(-c3ccc(C#CC(C)(C)S(C)(=O)=O)nc3[C@H](Cc3cc(F)cc(F)c3)NC(=O)Cn3nc(C(F)(F)F)c4c3C(F)(F)[C@@H]3C[C@H]43)ccc(Cl)c12)S(C)(=O)=O [Compound 48, N—((S)-1-(3-(4-chloro-3-(N—(((R)-2-hydroxypropyl)(methyl)carbamoyl)methylsulfonamido)-1-(2,2,2-trifluoroethyl)-1H-indazol-7-yl)-6-(3-methyl-3-(methylsulfonyl)but-1-yn-1-yl)pyridin-2-yl)-2-(3,5-difluorophenyl)ethyl)-2-((3bS,4aR)-5,5-difluoro-3-(trifluoromethyl)-3b,4,4a,5-tetrahydro-1H-cyclopropa[3,4]cyclopenta[1,2-c]pyrazol-1-yl)acetamide] | 1/1 μM | 1/1 μM
4 | C[C@H](CN(C)C(=O)N(c1nn(CC(F)(F)F)c2c(-c3ccc(C#CC(C)(C)S(C)(=O)=O)nc3[C@H](Cc3cc(F)cc(F)c3)NC(=O)Cn3nc(C(F)(F)F)c4c3C(F)(F)[C@@H]3C[C@H]43)ccc(Cl)c12)S(C)(=O)=O)OP(=O)(O)O [Compound 49, (R)-1-(3-(4-chloro-7-(2-((S)-1-(2-((3bS,4aR)-5,5-difluoro-3-(trifluoromethyl)-3b,4,4a,5-tetrahydro-1H-cyclopropa[3,4]cyclopenta[1,2-c]pyrazol-1-yl)acetamido)-2-(3,5-difluorophenyl)ethyl)-6-(3-methyl-3-(methylsulfonyl)but-1-yn-1-yl)pyridin-3-yl)-1-(2,2,2-trifluoroethyl)-1H-indazol-3-yl)-1-methyl-3-(methylsulfonyl)ureido)propan-2-yl dihydrogen phosphate] | 1 μM | 82 μM
